Like-named read-outs stand apart in the source and are kept apart here.
Tests used:
mouse Notch1-ΔE = assay: Inhibition of Notch1-ΔE signaling in Hela cells (CBF1-luciferase reporter); conditions: read-out: IC50 for inhibition of Notch1-ΔE signaling
Procedure: The mouse Notch1-ΔE construct contains the mouse Notch1 signal sequence and the M1727V mutation within the transmembrane domain to suppress internal translation initiation.
Hela cells were maintained in DMEM (GibcoBRL) containing 10% FBS (GibcoBRL), Penicillin/Streptomycin (GibcoBRL) and 2 mM L-glutamine (GibcoBRL). Cells were transiently transfected using TransIT-HelaMONSTER (Mirus) according to the manufacturer's directions. […] The CBF1-luciferase reporter construct consists of 4X copies of the CBF1 binding element upstream of the SV40 promoter (pGL3-Promoter, Promega). […] DNA stocks were diluted in TE buffer (10 mM Tris, 1 mM EDTA, pH 8.0) for transfection. […] Test compounds were initially diluted in a 96 well polypropylene plate in 100% DMSO. […] Diluted compound solutions (10 µL) were added to the cell plate yielding a final 0.1 % DMSO concentration. Cell plates containing compound were incubated overnight at 37°C. Following this overnight incubation, media was gently removed and 25 µL of phosphate buffered saline (with calcium and magnesium) was added to each well. Luc-Screen (Applied Biosystems) reagents A and B were mixed in equal proportions and 50 µL of the mixture was added to each well. The plate was incubated at room temperature for 10 minutes before black backing was attached to the bottom of the plate and the signal was read on a TopCount (Packard). […]

brain Aβ40 = assay: Rat brain Aβ40 assay (252-TSD ELISA); format: in vivo; conditions: for Day 7 5hr Brain Aβ40 (%Veh): 7 days; for Terminal Brain Aβ40 (%Veh) 5hr: 5 hours after the fourth dose; for Terminal Brain Aβ40 (%Veh) 12hr: 12 hours after the third dose; for Terminal Brain Aβ40 (%Veh) 24hr: 24 hours after the third dose; for brain Aβ40, % of baseline Aβ40 values: 2 to 24 hours post dosing
Procedure: All procedures were done in concordance with ACUC guidelines. […] Plasma was obtained after centrifugation. […] CSF samples were centrifuged to remove cells or debris prior to dilution at 1:2 in 4% BSA and frozen for subsequent analysis. […] Rat brain (half a hemisphere) was homogenized using a polytron at 4 mL/g in PBS, pH 7.8, 2% CHAPS, complete protease inhibitors (Roche). […] White Microlite II ELISA plates (Thermo Electron) were incubated with 50 µg/mL TSD9S3.2 antibody in PBS for 1 hour at 37°C. Plates were blocked with 200 µL 5% bovine serum albumin (BSA; weight/volume prepared in PBS) for 2 hours at room temperature on a plate shaker and then washed 5 times with 500 µL/well of PBS, 0.05% Tween-20. Clarified brain homogenates were loaded in 6 replicates of 50 µL per well and incubated for 1 hour at room temperature. […] Samples were normalized to a brain homogenate reference placed on each plate.

[1] = Compound plasma levels / AUC in rat studies; format: in vivo; conditions: for concentration at 5 h: female, Sprague-Dawley, rat, plasma, oral
Procedure: All procedures were done in concordance with ACUC guidelines. […] Plasma was obtained after centrifugation. […] CSF samples were centrifuged to remove cells or debris prior to dilution at 1:2 in 4% BSA and frozen for subsequent analysis.
Animals were euthanized 12 or 24 hours after the third dose or 5 hours after the fourth dose. […] Table 2: Summary of Results from 4-day Rat Studies

[2] = test system: γ-secretase inhibitor binding sites in the brain; assay: Gamma-secretase site occupancy in rat brain sections; format: in vivo
Procedure: Female Harlan Sprague-Dawley rats (∼200 - 250 g) were dosed daily by oral gavage with a dosing vehicle of 99% PEG-400, 1% Tween-80 at 4 mL/kg in the morning. […] All procedures were done in concordance with ACUC guidelines. […] Plasma was obtained after centrifugation. […] CSF samples were centrifuged to remove cells or debris prior to dilution at 1:2 in 4% BSA and frozen for subsequent analysis.
Brain sections were cut coronally at a thickness of 20 µm on a cryostat and thaw-mounted onto Superfrost Plus slides. Sections were saved at the level of the rostral hippocampus, with 3 sections per slide at intervals of about 120 µm, and frozen at -20°C until use. For occupancy studies, brain sections were warmed to room temperature, dried, incubated for 10 minutes in 50 mM HEPES buffer, pH 7.4, then transferred to the same buffer containing 1.5 nM [^3H]IN973 (Goldstein, M.E. et al., J. Pharmacol. Exp. Ther., 323:102-108 (2007)) or [^3H] (R)-4-((N-(1-amino-4-methyl-1-oxopentan-2-yl)-4-chlorophenylsulfonamido)methyl)-N-(2-methoxyethyl)benzamide and incubated at room temperature for 10 minutes. To define nonspecific binding, adjacent sections were incubated in buffer containing [^3H]IN973 or [^3H] (R)-4-((N-(1-amino-4-methyl-1-oxopentan-2-yl)-4-chlorophenylsulfonamido)methyl)-N-(2-methoxyethyl)benzamide, but including unlabeled γ-secretase inhibitor at 0.5 µM. After the incubation, the slides were washed three times for 2 minutes each in ice-cold PBS, pH 7.2, dipped in ice-cold distilled water, and dried with a fan blowing cool air. The slides were placed under tritium-sensitive phosphor storage screens (Amersham Biosciences, Arlington Heights, IL) and exposed in the dark for 7 days. Images were acquired from the phosphor storage screens using a Cyclone phosphor scanner (Packard, Meriden, CT) and OptiQuant acquisition and analysis software (Packard). Optical densities (expressed as digital light units per square millimeter) over areas of interest were measured and expressed as a percent of vehicle control.

[3] = rat, Study No. 2, 100 mg/kg/day

NC(=O)[C@@H](CCC(F)(F)F)N(Cc1ccc(-c2ncon2)cc1F)S(=O)(=O)c1ccc(Cl)cc1 [(2R)-2-[[(4-chlorophenyl)sulfonyl][[2-fluoro-4-(1,2,4-oxadiazol-3-yl)phenyl]methyl]amino]-5,5,5-trifluoropentanamide]
IC50 (mouse Notch1-ΔE): 0.058 ± 0.023 µM
Day 7 5hr Brain Aβ40 (%Veh) (brain Aβ40; Rat Study No. 3, 30 mg/kg/day): 13%Veh
Day 7 5hr Brain Aβ40 (%Veh) (brain Aβ40; Rat Study No. 3, 300 mg/kg/day): 13%Veh
ED50 (brain Aβ40; acute rat studies, read-out: ED50 for reduction of brain Aβ40): 1 to 10 mg/kg
Brain % Aβ AUC Reduction (brain Aβ40; rat, Study No. 2, 3 mg/kg/day): 57%
Terminal Brain Aβ40 (%Veh) 5hr (brain Aβ40; rat, Study No. 2, 3 mg/kg/day): 16%Veh
Terminal Brain Aβ40 (%Veh) 12hr (brain Aβ40; rat, Study No. 2, 3 mg/kg/day): 34%Veh
Terminal Brain Aβ40 (%Veh) 24hr (brain Aβ40; rat, Study No. 2, 3 mg/kg/day): 94%Veh
Brain % Aβ AUC Reduction (brain Aβ40; rat, Study No. 2, 10 mg/kg/day): 91%
Terminal Brain Aβ40 (%Veh) 5hr (brain Aβ40; rat, Study No. 2, 10 mg/kg/day): 6%Veh
Terminal Brain Aβ40 (%Veh) 12hr (brain Aβ40; rat, Study No. 2, 10 mg/kg/day): 4%Veh
Terminal Brain Aβ40 (%Veh) 24hr (brain Aβ40; rat, Study No. 2, 10 mg/kg/day): 23%Veh
Brain % Aβ AUC Reduction (brain Aβ40; rat, Study No. 2, 30 mg/kg/day): 93%
Terminal Brain Aβ40 (%Veh) 5hr (brain Aβ40; rat, Study No. 2, 30 mg/kg/day): 6%Veh
Terminal Brain Aβ40 (%Veh) 12hr (brain Aβ40; rat, Study No. 2, 30 mg/kg/day): 4%Veh
Terminal Brain Aβ40 (%Veh) 24hr (brain Aβ40; rat, Study No. 2, 30 mg/kg/day): 15%Veh
Brain % Aβ AUC Reduction (brain Aβ40; [3]): 96%
Terminal Brain Aβ40 (%Veh) 5hr (brain Aβ40; [3]): 3%Veh
Terminal Brain Aβ40 (%Veh) 12hr (brain Aβ40; [3]): 3%Veh
Terminal Brain Aβ40 (%Veh) 24hr (brain Aβ40; [3]): 7%Veh
Brain % Aβ AUC Reduction (brain Aβ40; rat, Study No.1, 3 mg/kg/day): 49%
Terminal Brain Aβ40 (%Veh) 5hr (brain Aβ40; rat, Study No.1, 3 mg/kg/day): 39%Veh
Terminal Brain Aβ40 (%Veh) 12hr (brain Aβ40; rat, Study No.1, 3 mg/kg/day): 35%Veh
Terminal Brain Aβ40 (%Veh) 24hr (brain Aβ40; rat, Study No.1, 3 mg/kg/day): 92%Veh
Brain % Aβ AUC Reduction (brain Aβ40; rat, Study No.1, 10 mg/kg/day): 85%
Terminal Brain Aβ40 (%Veh) 5hr (brain Aβ40; rat, Study No.1, 10 mg/kg/day): 12%Veh
Terminal Brain Aβ40 (%Veh) 12hr (brain Aβ40; rat, Study No.1, 10 mg/kg/day): 9%Veh
Terminal Brain Aβ40 (%Veh) 24hr (brain Aβ40; rat, Study No.1, 10 mg/kg/day): 28%Veh
Brain % Aβ AUC Reduction (brain Aβ40; rat, Study No.1, 30 mg/kg/day): 90%
Terminal Brain Aβ40 (%Veh) 5hr (brain Aβ40; rat, Study No.1, 30 mg/kg/day): 8%Veh
Terminal Brain Aβ40 (%Veh) 12hr (brain Aβ40; rat, Study No.1, 30 mg/kg/day): 9%Veh
Terminal Brain Aβ40 (%Veh) 24hr (brain Aβ40; rat, Study No.1, 30 mg/kg/day): 13%Veh
change in brain Aβ40 (brain Aβ40; rat, single dose 1 mg/kg): did not cause a statistically significant change
brain Aβ40, % of baseline Aβ40 values (brain Aβ40; rat, single dose 10 mg/kg): less than 25%
brain Aβ40, % of vehicle control (brain Aβ40; rat, single dose 30 mg/kg): 16%
brain Aβ40, % of baseline Aβ40 values (brain Aβ40; rat, single dose 100 mg/kg): less than 25%
Brain Aβ40 levels at termination, % of the vehicle control (brain Aβ40; rats, 30 or 300 mg/kg/day, 5 hours post dose): 13%
Brain Aβ40 AUC reduction (brain Aβ40; subchronic rat studies, doses of 10 mg/kg/day or higher): greater than 85%
concentration at 5 h ([1]; 30 mg/kg/day, Rat Study No. 3, 30 mg/kg/day, group terminated Day 4, read-out: Plasma Conc. 5hr post dose Day 1): 5.9 µM
concentration at 5 h ([1]; 30 mg/kg/day, Rat Study No. 3, 30 mg/kg/day, group terminated Day 4, read-out: Plasma Conc. 5hr post dose Day 4): 5.6 µM
concentration at 5 h ([1]; 30 mg/kg/day, Rat Study No. 3, 30 mg/kg/day, group terminated Day 7, read-out: Plasma Conc. 5hr post dose Day 1): 7.2 µM
concentration at 5 h ([1]; 30 mg/kg/day, Rat Study No. 3, 30 mg/kg/day, group terminated Day 7, read-out: Plasma Conc. 5hr post dose Day 7): 6.2 µM
concentration at 5 h ([1]; 300 mg/kg/day, Rat Study No. 3, 300 mg/kg/day, group terminated Day 4, read-out: Plasma Conc. 5hr post dose Day 1): 12 µM
concentration at 5 h ([1]; 300 mg/kg/day, Rat Study No. 3, 300 mg/kg/day, group terminated Day 4, read-out: Plasma Conc. 5hr post dose Day 4): 10 µM
concentration at 5 h ([1]; 300 mg/kg/day, Rat Study No. 3, 300 mg/kg/day, group terminated Day 7, read-out: Plasma Conc. 5hr post dose Day 1): 14 µM
concentration at 5 h ([1]; 300 mg/kg/day, Rat Study No. 3, 300 mg/kg/day, group terminated Day 7, read-out: Plasma Conc. 5hr post dose Day 7): 11 µM
compound plasma levels 5 hours after the first and fourth dose ([1]; rats, 30 or 300 mg/kg/day): similar
site occupancy ([2]; single dose 1 mg/kg, by 24 hours): gradually returned to baseline values
brain γ-secretase binding sites occupied ([2]; single dose 1 mg/kg, two hours after dose): 75%
γ-secretase inhibitor binding sites in the brain occupied ([2]; single dose 10 mg/kg, 24 hr timepoint): 88%
γ-secretase inhibitor binding sites in the brain occupied ([2]; single dose 10 mg/kg, all but the 24 hr timepoint): greater than 94%
γ-secretase inhibitor binding sites in the brain occupied ([2]; single dose 100 mg/kg, throughout the dosing interval): greater than 94%
